# According to ChEMBL document CHEMBL5661943, “ASAP - In vitro antiviral effect” (2024):
# Where “and” joins values, the source holds several entries; their conditions need not be identical. Equal entries are not always repeated.
# Assays:
# dengue virus type 2 [1] = assay: Functional immunofluorescence assay to measure dose dependent changes in antiviral-drug inhibitory efficacy against Dengue virus type 2 Thailand/16681/84 in Vero E6/TMPRSS2 cells (cotreated with P-gp inhibitor, Elacridar). Cells are treated with antiviral candidates that are serially diluted, following infection, cells are fixed. EC50 is reported via analysis of immunofluorescence staining. The assay has been performed by Icahn School of Medicine at Mount Sinai.; format: organism-based, Chlorocebus sabaeus, VeroE6/TMPRSS2; conditions: for EC90: P-gp concentration 2 uM, P-gp inhibitor Elacidar
# Zika virus [2] = assay: EC50 is reported via analysis of immunofluorescence staining. The assay has been performed by Icahn School of Medicine at Mount Sinai.; format: functional, organism-based, Chlorocebus sabaeus, VeroE6/TMPRSS2; conditions: for EC90: P-gp concentration 2 uM, P-gp inhibitor Elacidar
# Zika virus [3] = assay: Functional CPE-based assay to measure dose dependent changes in antiviral-drug inhibitory efficacy against Zika virus MR766 in Vero E6 miRFP670 cells (cotreated with P-gp inhibitor, CP100356). Cells are treated with antiviral candidates that are serially diluted. EC50 is reported via analysis of MTS assay as a readout of CPE. The assay has been performed by KU Leuven.; format: organism-based, Chlorocebus sabaeus, Vero C1008; conditions: Zika virus, Vero C1008; for EC90: Baseline response 0 %, Maximum response 100 %, P-gp concentration 500 nM, P-gp inhibitor CP100356
# dengue virus type 2 [4] = assay: Functional assay to measure dose dependent changes in antiviral-drug inhibitory efficacy against Dengue virus type 2 New Guinea C in Vero E6 miRFP670 cells (cotreated with P-gp inhibitor, CP100356). Cells are treated with antiviral candidates that are serially diluted, following infection, cells are fixed. EC50 is reported via analysis of fluorescence intensity using high-content imager. The …; format: organism-based, Chlorocebus sabaeus, Vero C1008; conditions: Dengue virus, Vero C1008; for EC90: Baseline response 0 %, Maximum response 100 %, P-gp concentration 500 nM, P-gp inhibitor CP100356
structure (smiles),measurement,setting,value
N#C[C@H](Nc1cccc(-c2nn[nH]n2)c1)c1cc(Cl)cc(NC(=O)OCc2ccccc2)c1,EC50,"dengue virus type 2 [1]; Dengue virus, VeroE6/TMPRSS2",> 50 µM
same,EC90,"dengue virus type 2 [1]; Dengue virus, VeroE6/TMPRSS2, Baseline response 0 %, Hill slope -0.37, Maximum measured 135.235 %, Maximum response 100 %, Minimum measured 60.402 %, R squared 0.119",> 50 µM
same,EC50,"Zika virus [2]; Zika virus, VeroE6/TMPRSS2",> 50 µM
same,EC90,"Zika virus [2]; Zika virus, VeroE6/TMPRSS2, Maximum measured 138.49 %, Minimum measured 54.48 %",> 50 µM
O=C(Nc1ccc2c(c1)CNC2)c1cc(Br)cc2[nH]c([C@H]3CCOC3)nc12,EC50,"Zika virus [2]; Zika virus, VeroE6/TMPRSS2",> 5.56 µM
same,EC90,"Zika virus [2]; Zika virus, VeroE6/TMPRSS2, Maximum measured 90.854 %, Minimum measured 45.403 %",> 5.56 µM
same,EC50,Zika virus [3],0.918 µM
same,EC90,"Zika virus [3]; Hill slope 2.359, Maximum measured 80.04 %, Minimum measured 15.463 %, R squared 0.714",> 1.56 µM
same,EC50,dengue virus type 2 [4],> 3.12 µM
same,EC90,"dengue virus type 2 [4]; Hill slope -2.03, Maximum measured 96.655 %, Minimum measured 50.768 %, R squared 0.853",> 3.12 µM
N#Cc1cc(Cl)cc(C(=O)Nc2ccc3c(c2)CNC3)c1,EC50,"dengue virus type 2 [1]; Dengue virus, VeroE6/TMPRSS2",> 50 µM
same,EC90,"dengue virus type 2 [1]; Dengue virus, VeroE6/TMPRSS2, Maximum measured 57.395 %, Minimum measured 32.413 %",> 50 µM
same,EC50,"Zika virus [2]; Zika virus, VeroE6/TMPRSS2",47.2 µM
same,EC90,"Zika virus [2]; Zika virus, VeroE6/TMPRSS2, Baseline response 0 %, Hill slope -12.375, Maximum measured 129.405 %, Maximum response 100 %, Minimum measured 33.162 %, R squared 0.602",> 50 µM
c1ccc(-c2csc(C3CCN(Cc4c[nH]c5ccccc45)CC3)n2)cc1,EC50,"dengue virus type 2 [1]; Dengue virus, VeroE6/TMPRSS2",> 3.33 µM
same,EC90,"dengue virus type 2 [1]; Dengue virus, VeroE6/TMPRSS2, Maximum measured 77.936 %, Minimum measured 57.835 %",> 3.33 µM
same,EC90,"dengue virus type 2 [1]; Dengue virus, VeroE6/TMPRSS2, Baseline response 0 %, Hill slope -0.326, Maximum measured 104.724 %, Maximum response 100 %, Minimum measured 54.484 %, R squared 0.233",> 1.85 µM
same,EC50,dengue virus type 2 [1]; veroe6/tmprss2,> 1.85 µM
same,EC90,"Zika virus [2]; Baseline response 0 %, Hill slope -0.213, Maximum measured 87.861 %, Maximum response 100 %, Minimum measured 39.067 %, R squared 0.218",> 1.85 µM
same,EC50,"Zika virus [2]; Zika virus, VeroE6/TMPRSS2",0.919 µM
same,EC90,"Zika virus [2]; Zika virus, VeroE6/TMPRSS2, Baseline response 0 %, Hill slope -0.414, Maximum measured 90.11 %, Maximum response 100 %, Minimum measured 29.783 %, R squared 0.361",> 3.33 µM
same,EC50,Zika virus [2]; veroe6/tmprss2,1.09 µM
NCc1cccc(NC(=O)c2cc(Cl)cc(CN)c2)c1,EC90,"dengue virus type 2 [1]; Baseline response 0 %, Hill slope -0.259, Maximum measured 118.193 %, Maximum response 100 %, Minimum measured 55.278 %, R squared 0.275",> 10 µM
same,EC90,"dengue virus type 2 [1]; Baseline response 0 %, Hill slope -0.379, Maximum measured 148.524 %, Maximum response 100 %, Minimum measured 29.621 %, R squared 0.276",> 50 µM
same,EC50,dengue virus type 2 [1]; veroe6/tmprss2,> 10 µM and 48.2 µM
same,EC90,"Zika virus [2]; Zika virus, VeroE6/TMPRSS2, Maximum measured 123.027 %, Minimum measured 86.3 %",> 50 µM
same,EC90,"Zika virus [2]; Zika virus, VeroE6/TMPRSS2, Baseline response 0 %, Hill slope -0.468, Maximum measured 130.938 %, Maximum response 100 %, Minimum measured 51.052 %, R squared 0.396",> 3.33 µM
same,EC50,Zika virus [2]; veroe6/tmprss2,> 50 µM
O=C(NCC1CCOCC1)[C@H](Nc1ccc2c(c1)CNC2)c1cc(Cl)cc2[nH]ncc12,EC50,"dengue virus type 2 [1]; Dengue virus, VeroE6/TMPRSS2",> 16.7 µM
same,EC90,"dengue virus type 2 [1]; Dengue virus, VeroE6/TMPRSS2, Maximum measured 245.258 %, Minimum measured 99.219 %",> 16.7 µM
same,EC50,"Zika virus [2]; Zika virus, VeroE6/TMPRSS2",> 16.7 µM
same,EC90,"Zika virus [2]; Zika virus, VeroE6/TMPRSS2, Maximum measured 73.647 %, Minimum measured 25.821 %",> 16.7 µM
Nc1cc(Cl)cc(C(=O)Nc2ccc3c(c2)CNC3)c1N,EC50,"dengue virus type 2 [1]; Dengue virus, VeroE6/TMPRSS2",41.9 µM
same,EC90,"dengue virus type 2 [1]; Dengue virus, VeroE6/TMPRSS2, Baseline response 0 %, Hill slope -3.096, Maximum measured 144.717 %, Maximum response 100 %, Minimum measured 36.673 %, R squared 0.131",> 50 µM
same,EC50,Zika virus [3],> 50 µM
same,EC90,"Zika virus [3]; Hill slope 0.699, Maximum measured 36.917 %, Minimum measured 3.264 %, R squared 0.811",> 50 µM
same,EC50,dengue virus type 2 [4],> 50 µM
same,EC90,"dengue virus type 2 [4]; Hill slope 0.309, Maximum measured 103.631 %, Minimum measured 71.641 %, R squared 0.1",> 50 µM
NCc1ccc(F)c(NC(=O)c2cc(Cl)cc(NC(=O)OCc3ccccc3)c2)c1,EC50,"dengue virus type 2 [1]; Dengue virus, VeroE6/TMPRSS2",> 5.56 µM
same,EC90,"dengue virus type 2 [1]; Dengue virus, VeroE6/TMPRSS2, Maximum measured 158.385 %, Minimum measured 97.578 %",> 5.56 µM
same,EC50,"Zika virus [2]; Zika virus, VeroE6/TMPRSS2",> 5.56 µM
same,EC90,"Zika virus [2]; Zika virus, VeroE6/TMPRSS2, Maximum measured 191.718 %, Minimum measured 113.213 %",> 5.56 µM
